In patent publication US7977061B2, “Ex vivo method for determining potential GLP-2 receptor modulators” (NPS Pharmaceuticals Inc., priority 2005, dated 2011):
Entries after “also recorded” stand apart in the source; their conditions may differ. Where two headings read alike, the source gives them in different places.

Target: T1, GLP-2R (Rattus norvegicus, UniProt Q9Z0W0)
T1 construct: the described assay enables native GLP-2R characterization by the direct application of GLP-2 to intestinal tissue segments ex vivo; from tissue; host or cells: colon segments of male Sprague-Dawley rats
T1 sequence (Q9Z0W0 1-550): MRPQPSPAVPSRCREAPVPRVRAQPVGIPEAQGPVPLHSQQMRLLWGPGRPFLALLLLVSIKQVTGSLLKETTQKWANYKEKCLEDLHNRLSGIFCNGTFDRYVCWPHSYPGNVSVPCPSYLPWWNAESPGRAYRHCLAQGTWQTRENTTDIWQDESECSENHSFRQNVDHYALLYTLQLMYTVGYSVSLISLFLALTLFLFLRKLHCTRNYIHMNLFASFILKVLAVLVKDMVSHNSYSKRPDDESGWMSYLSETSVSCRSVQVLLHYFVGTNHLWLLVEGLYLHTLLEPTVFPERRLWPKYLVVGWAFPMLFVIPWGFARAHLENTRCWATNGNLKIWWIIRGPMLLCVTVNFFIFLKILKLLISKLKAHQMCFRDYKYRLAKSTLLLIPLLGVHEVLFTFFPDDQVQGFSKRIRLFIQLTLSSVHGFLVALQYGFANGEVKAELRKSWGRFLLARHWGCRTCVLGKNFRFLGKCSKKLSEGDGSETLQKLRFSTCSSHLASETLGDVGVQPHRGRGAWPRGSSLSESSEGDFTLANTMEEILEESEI
Assay: Ex vivo organ bath assay of spontaneous contractility of rat colon segments
Settings: for effect on spontaneous colon contractility: substance alone; for IC50: rat colon segments
Protocol: Segments of colon from male Sprague Dawley rats were suspended in organ bath chambers containing Krebs' solution and maintained at 37° C. with 95% O2 and 5% CO2. Basal tone, contractility rate and peak height were used to measure the properties of spontaneous and ligand-mediated colonic contractions. Segments were initially loaded to a tension of 2 g and allowed to equilibrate for 60 minutes. During this period, segments were repeatedly washed every 10 minutes. [gly2]GLP-2 (“Teduglutide”, a GLP-2 agonist) and GLP-2 analogues were subsequently incubated with each tissue segment for 5 to 10 minutes. The tissues were allowed to re-equilibrate with repeated washes following each experiment.
Male Sprague-Dawley (SD) rats (Charles River Canada, Quebec), weighing 200-250 g, were used for these studies. The animals were housed on contact bedding and kept with free access to food (Purina Rodent Diet) and water in a facility with regulated temperature and humidity, under an alternate 12-hour light/dark cycle. Animals were acclimatized for 3˜5 days prior to harvesting of tissues.
Rats were euthanized by decapitation. The entire intestine was quickly removed and placed in a Petri dish containing a Sylgard layer and 37° C. Krebs' solution bubbled with 95% O2 and 5% CO2. The Krebs' solution (pH 7.4) contained 118.1 mM NaCl, 25 mM NaHCO3, 4.7 mM KCl, 1.2 mM KH2PO4, 1.2 mM MgSO4.7H2O, 2.5 mM CaCl2.2H2O and 11 mM glucose. The colon was isolated, cleaned of superficial fat and mesentery and sectioned into eight 1-cm long segments. The lumen was cleaned by carefully flushing each segment with Krebs' solution using plastic transfer pipets. Segments were transferred to a separate Petri dish containing fresh Krebs' solution and suture threads were tied to both ends of each segment. Tissues were suspended longitudinally using surgical suture, one end attached to the transducer on the top and the other to the tissue holder at the bottom of 20 ml organ bath chambers containing Krebs' solution, maintained at 37° C. with 95% O2 and 5% CO2. Isometric tensions were continuously measured using calibrated force displacement transducers and data was collected and processed by the MP100WSW system with AcqKnowledge software
Segments of colon were initially loaded to a tension of 2 g and allowed to equilibrate for a 60 min period. During this period, segments were washed with Krebs' solution at 10 minutes intervals. When the tissues obtained regular and stable contraction patterns, GLP-2 agonist response experiments were conducted by the addition of eight concentrations of compound into eight separate organ baths for 5-10 minutes. Routinely, one-hour washes were interspersed between repeat applications of compounds to allow for recovery. The effect of GLP-2(3-33) on GLP-2 agonist analogues were conducted by pre-incubating colon segments with 1 or 10 uM GLP-2(3-33) for 5-10 minutes. Then agonist responses were measured at various concentrations as described above.
Tension was measured by changes in peak height. Data were calculated and expressed as percentage response relative to the basal level (prior to the experiment). Graphs and IC50 determinations were plotted by the percentage response in GraphPad Prism (v 3.02). In order to assess the significance of the effect of GLP-2 and Teduglutide paired t-tests were conducted on the Log [IC50] values.

IC50 (agonist alone, read-out: estimated IC50, inhibition of colon contractility) [nM] | IC50 (pre-incubated with 1 μM GLP-2(3-33), read-out: estimated IC50, inhibition of colon contractility in the presence of GLP-2(3-33)) [nM] | IC50 (pre-incubated with 10 μM GLP-2(3-33), read-out: estimated IC50, inhibition of colon contractility in the presence of GLP-2(3-33)) [nM] | Molecule | effect on GLP-2(1-33)-induced inhibition of colon contractility (rat colon, 1 μM and 10 μM test substance, agonist GLP-2(1-33)) | effect on teduglutide-induced inhibition of rat colon contractility (rat colon, 1 μM and 10 μM test substance, agonist teduglutide) | effect on spontaneous colon contractility (rat colon)
 |  |  | GLP-2(3-33) (DGSFSDEMNTILDNLAARDFINWLIQTKITD; Glucagon-like peptide 2; UniProt P01275 148-178, looked up, fragment) [a GLP-2 antagonist/partial agonist] | blocked GLP-2(1-33)-induced inhibition of colon contractility; also recorded: blocked the inhibitory effects; also recorded: blocks the effect of GLP-2(1-33) in a concentration-dependent manner | blocked teduglutide-induced inhibition of colon contractility; also recorded: blocked the inhibitory effects | no effect alone
 |  |  | CC[C@H](C)[C@H](NC(=O)[C@H](Cc1ccccc1)NC(=O)[C@H](CC(=O)O)NC(=O)[C@H](CCCNC(=N)N)NC(=O)[C@H](C)NC(=O)[C@H](C)NC(=O)[C@H](CC(C)C)NC(=O)[C@H](CC(N)=O)NC(=O)[C@H](CC(=O)O)NC(=O)[C@H](CC(C)C)NC(=O)[C@@H](NC(=O)[C@@H](NC(=O)[C@H](CC(N)=O)NC(=O)[C@H](CCSC)NC(=O)[C@H](CCC(=O)O)NC(=O)[C@H](CC(=O)O)NC(=O)[C@H](CO)NC(=O)[C@H](Cc1ccccc1)NC(=O)[C@H](CO)NC(=O)CNC(=O)[C@H](CC(=O)O)NC(=O)[C@H](C)NC(=O)[C@@H](N)Cc1c[nH]cn1)[C@@H](C)O)[C@@H](C)CC)C(=O)N[C@@H](CC(N)=O)C(=O)N[C@@H](Cc1c[nH]c2ccccc12)C(=O)N[C@@H](CC(C)C)C(=O)N[C@H](C(=O)N[C@@H](CCC(N)=O)C(=O)N[C@H](C(=O)N[C@@H](CCCCN)C(=O)N[C@H](C(=O)N[C@H](C(=O)N[C@@H](CC(=O)O)C(=O)O)[C@@H](C)O)[C@@H](C)CC)[C@@H](C)O)[C@@H](C)CC [GLP-2(1-33)] |  |  | inhibits spontaneous colon contractility in a concentration-dependent manner
4.9 ± 1.9 | 34.7 ± 15.1 | 59.9 ± 11.9 | CC[C@H](C)[C@H](NC(=O)[C@H](Cc1ccccc1)NC(=O)[C@H](CC(=O)O)NC(=O)[C@H](CCCNC(=N)N)NC(=O)[C@H](C)NC(=O)[C@H](C)NC(=O)[C@H](CC(C)C)NC(=O)[C@H](CC(N)=O)NC(=O)[C@H](CC(=O)O)NC(=O)[C@H](CC(C)C)NC(=O)[C@@H](NC(=O)[C@@H](NC(=O)[C@H](CC(N)=O)NC(=O)[C@H](CCSC)NC(=O)[C@H](CCC(=O)O)NC(=O)[C@H](CC(=O)O)NC(=O)[C@H](CO)NC(=O)[C@H](Cc1ccccc1)NC(=O)[C@H](CO)NC(=O)CNC(=O)[C@H](CC(=O)O)NC(=O)CNC(=O)[C@@H](N)Cc1c[nH]cn1)[C@@H](C)O)[C@@H](C)CC)C(=O)N[C@@H](CC(N)=O)C(=O)N[C@@H](Cc1c[nH]c2ccccc12)C(=O)N[C@@H](CC(C)C)C(=O)N[C@H](C(=O)N[C@@H](CCC(N)=O)C(=O)N[C@H](C(=O)N[C@@H](CCCCN)C(=O)N[C@H](C(=O)N[C@H](C(=O)N[C@@H](CC(=O)O)C(=O)O)[C@@H](C)O)[C@@H](C)CC)[C@@H](C)O)[C@@H](C)CC [Teduglutide, [gly2]GLP-2] |  |  | inhibited spontaneous colon contractility in a concentration-dependent manner
